The results in this text go back to US10632227B2, “Method of making injectable cements” (Wayne State University, priority 2015, dated 2020).

Each structure is given as a SMILES string.

In this experiment the test system is S. aureus. Description: modified MIC assay, bactericidal activity of eluents from CPP mix cements. It is filed as cell-based. The note with it: EM eluted from cement or gel. How it is done: A modified minimum inhibitory concentration (MIC) assay was developed to measure the bactericidal activity of erythromycin eluted from the CPP mix cements. Briefly, a Mueller-Hinton broth inoculated with S. aureus […] was cultured at about 37° C. until an absorbance reading of about 0.08 to about 0.1 was attained at 625 nm, corresponding to roughly 1-2×10^8 CFU/ml. Then about 200 μl of eluents from CPP mix cements collected at various time points was added into about 800 μL of the bacterial broth and incubation continued at about 37° C. for about 6 hours, followed by OD measurement at about 625 nm. The MIC was determined by the lowest concentration that inhibited the growth of bacterium as characterized by a lack of turbidity and lower OD readings. Bacterial culture in Mueller Hinton broth without erythromycin was included as a positive control. Bactericidal activity assays were conducted in duplicate for both the blank and testing samples.

For the compound `CC[C@H]1OC(=O)[C@H](C)[C@@H](O[C@H]2C[C@@](C)(OC)[C@@H](O)[C@H](C)O2)[C@H](C)[C@@H](O[C@@H]2O[C@H](C)C[C@H](N(C)C)[C@H]2O)[C@](C)(O)C[C@@H](C)C(=O)[C@H](C)[C@@H](O)[C@]1(C)O` [EM, erythromycin], the “bactericidal activity / stability of eluted EM” value was “stable and active”.
